Test [1] deals with MOLP-8 human multiple myeloma cell line. Put plainly: Caspase-Glo 3/7 apoptosis induction assay in MOLP-8 cells. The format is cell-based. The conditions noted are these: MOLP8 cells, 2 hours at 37° C.; 30 µM highest conc.; averaged over all runs on all batches. From the text: MCL-1 is a regulator of apoptosis and is highly over-expressed in tumor cells that escape cell death. The assay evaluates the cellular potency of small-molecule compounds targeting regulators of the apoptosis pathway, primarily MCL-1, Bfl-1, Bcl-2, and other proteins of the Bcl-2 family. Protein-protein inhibitors disrupting the interaction of anti-apoptotic regulators with BH3-domain proteins initiate apoptosis.
The Caspase-Glo® 3/7 Assay is a luminescent assay that measures caspase-3 and -7 activities in purified enzyme preparations or cultures of adherent or suspension cells. The assay provides a proluminescent caspase-3/7 substrate, which contains the tetrapeptide sequence DEVD. This substrate is cleaved to release aminoluciferin, a substrate of luciferase used in the production of light. Addition of the single Caspase-Glo® 3/7 Reagent in an “add-mix-measure” format results in cell lysis, followed by caspase cleavage of the substrate and generation of a “glow-type” luminescent signal.
This assay uses the MOLP-8 human multiple myeloma cell line, which is sensitive to MCL-1 inhibition.
Cell cultures were maintained between 0.2 and 2.0 ×10^6 cells/mL. The cells were harvested by collection in 50 mL conical tubes. The cells were then pelleted at 500 g for 5 mins before removing supernatant and resuspension in fresh pre-warmed culture medium. The cells were counted and diluted as needed.
The assay reagent was prepared by transferring the buffer solution to the substrate vial and mixing. The solution may be stored for up to 1 week at 4° C. with negligible loss of signal.
Compounds were delivered in assay-ready plates (Proxiplate) and stored at -20° C. Assays always include 1 reference compound plate containing reference compounds. The plates were spotted with 40 nL of compounds (0.5% DMSO final in cells; serial dilution; 30 µM highest conc. ⅓ dilution, 10 doses, duplicates). The compounds were used at room temperature and 4 µL of pre-warmed media was added to all wells except column 2 and 23. The negative control was prepared by adding 1% DMSO in media. The positive control was prepared by adding the appropriate positive control compound in final concentration of 60 µM in media. The plate was prepared by adding 4 µL negative control to column 23, 4 µL positive control to column 2 and 4 µL cell suspension to all wells in the plate. The plate with cells was then incubated at 37° C. for 2 hours. The assay signal reagent is the Caspase-Glo solution described above, and 8 µL was added to all wells. The plates were then sealed and measured after 30 minutes.
The activity of a test compound was calculated as percent change in apoptosis induction as follows:
• %Effect (AC50) = 100 - ((sample-LC) / (HC-LC)) *100 • %Control = (sample /HC)* 100 • %Control min = ((sample-LC) / (HC-LC)) *100

For test [2], the target named is Myeloid Cell Leukemia 1 (Mcl-1) (Homo sapiens, UniProt Q07820). Put plainly: Terbium labeled Mcl-1 HTRF binding assay (displacement of Cy5-labeled BIM BH3 peptide). The note with it: 25 pM Tb-Mcl-1, 8 nM Cy5 Bim peptide, [L] = 8 nM, Kd = 10 nM, 60 minutes at room temperature, read-out: Tb-MCL1 Ki. As for the experimental part:
Terbium labeled Myeloid Cell Leukemia 1(Mcl-1) homogeneous time-resolved fluorescence (HTRF) binding assay utilizing the BIM BH3 peptide (H2N-(C/Cy5Mal) WIAQELRRIGDEFN-OH) as the binding partner for Mcl-1.
This assay evaluated inhibition of the BH3 domain : Mcl-1 interaction by measuring the displacement of Cy5-labeled BIM BH3 peptide (H2N-(C/Cy5Mal) WIAQELRRIGDEFN-OH) in the HTRF assay format.
The following assay and stock buffers were prepared for use in the assay: (a) Stock buffer: 10 mM Tris-HCl, pH=7.5 + 150 mM NaCl, filtered, sterilized, and stored at 4° C.; and (b) 1X assay buffer, where the following ingredients were added fresh to stock buffer: 2 mM dithiothreitol (DTT), 0.0025% Tween-20, 0.1 mg/mL bovine serum albumin (BSA). The 1X Tb-Mcl-1 + Cy5 Bim peptide solution was prepared by diluting the protein stock solution using the 1X assay buffer (b) to 25 pM Tb-Mcl-1 and 8 nM Cy5 Bim peptide.
Using the Acoustic ECHO, 100 nL of 100x test compound(s) were dispensed into individual wells of a white 384-well Perkin Elmer Proxiplate, for a final compound concentration of 1x and final DMSO concentration of 1%. Inhibitor control and neutral control (NC, 100 nL of 100% DMSO) were stamped into columns 23 and 24 of assay plate, respectively. Into each well of the plate was then dispensed 10µL of the 1X Tb-Mcl-1 + Cy5 Bim peptide solution. The plate was centrifuged with a cover plate at 1000 rpm for 1 minute, then incubated for 60 minutes at room temperature with plates covered. The TR-FRET signal was read on an BMG PHERAStar FSX MicroPlate Reader at room temperature using the HTRF optic module (HTRF: excitation: 337 nm, light source: laser, emission A: 665 nm, emission B: 620 nm, integration start: 60 µs, integration time: 400 µs).
The BMG PHERAStar FSX MicroPlate Reader was used to measure fluorescence intensity at two emission wavelengths - 665 nm and 620 nm - and report relative fluorescence units (RFU) for both emissions, as well as a ratio of the emissions (665 nm/620 nm)*10,000. The RFU values were normalized to percent inhibition as follows: • % inhibition = (((NC - IC) - compound - IC)) / (NC - IC)) *100 where IC (inhibitor control, low signal) = mean signal of 1X Tb-MCl-1 + Cy5 Bim peptide+ inhibitor control or 100% inhibition of Mcl-1; NC (neutral control, high signal) = mean signal 1X Tb-MCl-1 + Cy5 Bim peptide with DMSO only or 0% inhibition An 11-point dose response curve was generated to determine IC50 values (using GenData) based on the following equation:
where Y = % inhibition in the presence of X inhibitor concentration; Top = 100% inhibition derived from the IC (mean signal of Mcl-1 + inhibitor control); Bottom = 0% inhibition derived from the NC (mean signal of Mcl-1 + DMSO); Hillslope = Hill coefficient; and IC50 = concentration of compound with 50% inhibition in relation to top/neutral control (NC).
In this assay [L] = 8 nM and Kd = 10 nM
(TR-FRET usually uses a lanthanide donor and a delayed reading to cut background.)

Myeloid Cell Leukemia 1 (Mcl-1), sequence (Q07820 whole entry): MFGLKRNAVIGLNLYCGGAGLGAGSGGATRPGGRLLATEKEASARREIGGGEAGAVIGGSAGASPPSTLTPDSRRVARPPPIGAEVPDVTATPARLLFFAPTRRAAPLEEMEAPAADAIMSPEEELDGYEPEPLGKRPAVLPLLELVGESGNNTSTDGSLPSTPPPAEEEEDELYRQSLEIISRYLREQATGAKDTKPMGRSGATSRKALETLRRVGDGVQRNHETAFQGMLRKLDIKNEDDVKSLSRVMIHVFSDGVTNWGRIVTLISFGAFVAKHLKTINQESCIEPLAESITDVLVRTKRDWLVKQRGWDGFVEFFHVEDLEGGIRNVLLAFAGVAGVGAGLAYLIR

With `Cc1nn2c(c1C)-c1c(Cl)ccc3c1c(C)c(C(=O)O)n3CCCOc1cc(cc3cc(F)ccc13)CCc1cc(nn1C)CCC2` (single isomer, unassigned) [Compound 1], in test [1], the AC50 stood at 26 nM. In test [2], the Ki turned out to be 0.04 nM.

As for `Cc1nn2c(c1C)-c1c(Cl)ccc3c1c(C)c(C(=O)O)n3CCCOc1cc(cc3cc(F)ccc13)CCc1cc(nn1C)CCC2` (single isomer, unassigned) [Compound 2], in test [1], the AC50 was found to be 1930 nM. Besides, the Ki in test [2] was 3.28 nM.

In test [1], `Cc1nn2c(c1C)-c1c(Cl)ccc3c1c(C)c(C(=O)O)n3CCCOc1cc(cc3ccccc13)SCc1cc(nn1C)CCC2` (single isomer, unassigned) [Compound 3] returned an AC50 of 131 nM. Also, in test [2], the Ki is 0.1 nM.

As for `Cc1nn2c(c1C)-c1c(Cl)ccc3c1c(C)c(C(=O)O)n3CCCOc1cc(cc3ccccc13)SCc1cc(nn1C)CCC2` (single isomer, unassigned) [Compound 4], the AC50 in test [1] turned out to be 4010 nM. In test [2], the inhibitory constant (Ki) was determined as 1.57 nM.

In test [1], `Cc1nn2c(c1C)-c1c(Cl)ccc3c1c(C)c(C(=O)O)n3CCCOc1cc(cc3ccccc13)SCc1cn(nn1)CCC2` (single isomer, unassigned) [Compound 5] returned an AC50 of 8180 nM. Besides, the Ki in test [2] was found to be 5.21 nM.

Turning to `Cc1nn2c(c1C)-c1c(Cl)ccc3c1c(C)c(C(=O)O)n3CCCOc1cc(cc3ccccc13)SCc1cn(nn1)CCC2` (single isomer, unassigned) [Compound 6], the AC50 in test [1] is above 30000 nM. Further, in test [2], the Ki was 445 nM.

As to `Cc1nn2c(c1C)-c1c(Cl)ccc3c1c(C)c(C(=O)O)n3CCCOc1cc(cc3ccccc13)SCc1cnn(c1)CCC2` (single isomer, unassigned) [Compound 7], in test [1], half-maximal activity (AC50) was put at 3180 nM. For the same compound, the Ki in test [2] came out at 0.95 nM.

Take `Cc1nn2c(c1C)-c1c(Cl)ccc3c1c(C)c(C(=O)O)n3CCCOc1cc(cc3ccccc13)SCc1cnn(c1)CCC2` (single isomer, unassigned) [Compound 8]: in test [1], half-maximal activity (AC50) was put at 27500 nM. The Ki in test [2] worked out at 422 nM.

The AC50 is the concentration at which the activity in the assay is half-maximal. High values mean weaker potency, low ones greater potency. One may read the Ki as a dissociation constant, usually derived from enzyme kinetics or from competition with a known ligand.

For the origin of these results see patent US20230234965A1, “N-LINKED MACROCYCLIC 4-(PYRAZOL-5-YL)-INDOLE DERIVATIVES AS INHIBITORS OF MCL-1” (Janssen Pharmaceutica NV, priority 2020, published 2023).
